The test system of the assay is BDF1 mice, P388 leukemia ip, median survival T/C. Briefly: NCI In Vivo Anticancer Drug Screen. Data for tumor model P388 Leukemia (intraperitoneal) in B6D2F1 (BDF1) mice. The settings on record: endpoint: median survival time, higher = longer survival. In a few lines: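 Each value expresses how treatment altered survival: treated-mouse outcome over vehicle-mouse outcome, both groups bearing the transplanted tumour.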

Setting [1] is: dose: 25.0 mg/kg/injection, schedule: Q01DX009 (ip), vehicle: saline with Tween-80.
The mark [2] stands for this setting: dose: 50.0 mg/kg/injection, schedule: Q01DX009 (ip), vehicle: saline with Tween-80.
[3] abbreviates: dose: 100.0 mg/kg/injection, schedule: Q01DX009 (ip), vehicle: saline with Tween-80.
Where [4] appears, read: dose: 50.0 mg/kg/injection, schedule: Q01DX009 (ip), vehicle: saline.
Setting [5] is: dose: 50.0 mg/kg/injection, schedule: Q04DX003 (ip), vehicle: saline.
Setting [6] is: dose: 100.0 mg/kg/injection, schedule: Q01DX009 (ip), vehicle: saline.
[7] abbreviates: dose: 100.0 mg/kg/injection, schedule: Q04DX003 (ip), vehicle: saline.
[8] abbreviates: dose: 200.0 mg/kg/injection, schedule: Q04DX003 (ip), vehicle: saline.
Where [9] appears, read: dose: 400.0 mg/kg/injection, schedule: Q04DX003 (ip), vehicle: saline.
Setting [10] is: dose: 200.0 mg/kg/injection, schedule: Q01DX009 (ip), vehicle: saline.
[11] abbreviates: dose: 200.0 mg/kg/injection, schedule: Q01DX009 (ip), vehicle: saline with Tween-80.
The mark [12] stands for this setting: dose: 100.0 mg/kg/injection, schedule: Q04DX003 (ip), vehicle: Klucel (hydroxypropylcellulose) (HPC).

Molecules are shown by their SMILES. Values joined by “and” are separate entries in the source; they are usually repeats but may differ in a detail not shown here. Equal entries are not always repeated. Inconclusive results and toxic doses are left out.

For `O=C(O)c1cc(C(=O)O)cc([N+](=O)[O-])c1`, the T/C by setting is: under setting [1], 100 % of control; under setting [2], 100 % of control; under setting [3], 90 % of control.

In the case of `Cc1c(N)nc(C(CC(N)=O)NCC(N)C(N)=O)nc1C(=O)NC(C(=O)NC(C)C(O)C(C)C(=O)NC(C(=O)NCCc1nc(-c2nc(C(=O)NCCC[S+](C)C)cs2)cs1)C(C)O)C(OC1OC(CO)C(O)C(O)C1OC1OC(CO)C(O)C(OC(N)=O)C1O)c1cnc[nH]1` (stereo unspecified), the T/C reads like this: (dose: 0.5 mg/kg/injection, schedule: Q01DX009 (ip), vehicle: saline) 115 % of control; (dose: 1.0 mg/kg/injection, schedule: Q01DX009 (ip), vehicle: saline) 115 % of control and 116 % of control; (dose: 2.0 mg/kg/injection, schedule: Q01DX009 (ip), vehicle: saline) 120 % of control; (dose: 8.0 mg/kg/injection, schedule: Q01DX009 (ip), vehicle: saline) 163 % of control; (dose: 16.0 mg/kg/injection, schedule: Q01DX009 (ip), vehicle: saline) 90 % of control and 93 % of control and 118 % of control; (dose: 32.0 mg/kg/injection, schedule: Q01DX009 (ip), vehicle: saline) 100 % of control.

With `NC1(CO)COC(c2ccccc2)OC1` (stereo unspecified), the T/C reads like this: (dose: 25.0 mg/kg/injection, schedule: Q01DX009 (ip), vehicle: saline) 100 % of control and 105 % of control; under setting [4], 105 % of control and 118 % of control; under setting [5], 97 % of control and 98 % of control and 109 % of control; under setting [6], 100 % of control and 107 % of control; under setting [7], 100 % of control and 102 % of control.

As for `Cc1ccc(NC(=O)COc2cc(Cl)c(Cl)cc2Cl)cc1C`, the T/C was 90 % of control (dose: 100.0 mg/kg/injection, schedule: Q04DX003 (ip), vehicle: saline with Tween-80); 90 % of control (dose: 200.0 mg/kg/injection, schedule: Q04DX003 (ip), vehicle: saline with Tween-80); 86 % of control (dose: 400.0 mg/kg/injection, schedule: Q04DX003 (ip), vehicle: saline with Tween-80).

Turning to `N#Cc1c(O)oc2cccnc12`, the T/C (dose: 50.0 mg/kg/injection, schedule: Q01DX005 (ip), vehicle: saline with Tween-80) is 92 % of control; the T/C (dose: 100.0 mg/kg/injection, schedule: Q01DX005 (ip), vehicle: saline with Tween-80) was 97 % of control; the T/C (dose: 200.0 mg/kg/injection, schedule: Q01DX005 (ip), vehicle: saline with Tween-80) is 103 % of control.

On to `CCOC(=O)/C=C(/CC(=O)OCC)OCC`, for which the T/C (dose: 25.0 mg/kg/injection, schedule: Q04DX003 (ip), vehicle: saline) was 106 % of control; the T/C under setting [5] was 100 % of control; the T/C under setting [7] is 115 % of control; the T/C under setting [8] is 106 % of control; the T/C under setting [9] is 112 % of control.

On to `Oc1ccc2ccccc2c1/C=N\Sc1ccc(Cl)cc1`, for which the T/C is 90 % of control (dose: 12.5 mg/kg/injection, schedule: Q01DX009 (ip), vehicle: saline with Tween-80); 96 % of control under setting [1]; 106 % of control under setting [2].

Regarding `O=NO.O=N[O-].O=N[O-].[Co+3].[NH-]CC[N-]CCO.[NH-]CC[N-]CCO`, the T/C reads like this: (dose: 25.0 mg/kg/injection, schedule: Q01DX009 (ip), vehicle: water) 104 % of control; (dose: 25.0 mg/kg/injection, schedule: Q04DX003 (ip), vehicle: water) 100 % of control; (dose: 50.0 mg/kg/injection, schedule: Q01DX009 (ip), vehicle: water) 98 % of control; (dose: 50.0 mg/kg/injection, schedule: Q04DX003 (ip), vehicle: water) 109 % of control; (dose: 100.0 mg/kg/injection, schedule: Q04DX003 (ip), vehicle: water) 104 % of control.

As to `COC[C@H]1OC(=O)c2coc3c2[C@@]1(C)C1=C(C3=O)[C@@H]2CCC(=O)[C@@]2(C)C[C@H]1OC(C)=O`, the T/C is 108 % of control (dose: 0.16 mg/kg/injection, schedule: Q01DX009 (ip), vehicle: saline); 115 % of control (dose: 0.31 mg/kg/injection, schedule: Q01DX009 (ip), vehicle: saline); 116 % of control (dose: 0.63 mg/kg/injection, schedule: Q01DX009 (ip), vehicle: saline); 117 % of control (dose: 2.5 mg/kg/injection, schedule: Q01DX009 (ip), vehicle: saline).

For `NN=C(NN)NN`, the T/C reads like this: under setting [4], 105 % of control; under setting [6], 105 % of control; under setting [10], 96 % of control.

For the molecule `Nc1nc(=S)c2ncn(C3OC(CO)C(O)C3O)c2[nH]1` (stereo unspecified), the T/C was 118 % of control (dose: 1.0 mg/kg/injection, schedule: Q01DX010 (ip), vehicle: saline); 118 % of control (dose: 2.0 mg/kg/injection, schedule: Q01DX010 (ip), vehicle: saline); 100 % of control and 109 % of control (dose: 4.0 mg/kg/injection, schedule: Q01DX010 (ip), vehicle: saline); 90 % of control and 100 % of control (dose: 8.0 mg/kg/injection, schedule: Q01DX010 (ip), vehicle: saline); 118 % of control under setting [5]; 122 % of control (dose: 132.0 mg/kg/injection, schedule: Q04DX003 (ip), vehicle: saline with Tween-80). Also, the T/C under setting [10] is 117 % of control; the T/C (dose: 300.0 mg/kg/injection, schedule: Q04DX003 (ip), vehicle: saline with Tween-80) is 122 % of control; the T/C (dose: 400.0 mg/kg/injection, schedule: Q01DX009 (ip), vehicle: saline) is 111 % of control.

With `N#C/C(=C/c1ccccc1)CBr`, the T/C is, setting by setting: (dose: 25.0 mg/kg/injection, schedule: Q01DX001 (ip), vehicle: saline with Tween-80) 102 % of control; (dose: 50.0 mg/kg/injection, schedule: Q01DX001 (ip), vehicle: saline with Tween-80) 93 % of control.

For `CCCCCCCCC1SC1CCCCCCCC(=O)OCCOCCOCC` (stereo unspecified), the T/C under setting [7] is 88 % of control, the T/C under setting [8] is 88 % of control and the T/C under setting [9] was 92 % of control.

Consider `c1ccc2c(c1)cc1c3nnnn3ncn21`, for which the T/C is 106 % of control under setting [2], 104 % of control under setting [3] and 89 % of control under setting [11].

On to `O=C(c1ccccc1)C1OC1c1ccccc1` (stereo unspecified), for which the T/C runs as follows: under setting [3], 93 % of control; under setting [11], 99 % of control; (dose: 400.0 mg/kg/injection, schedule: Q01DX009 (ip), vehicle: saline with Tween-80) 100 % of control; (dose: 600.0 mg/kg/injection, schedule: Q01DX009 (ip), vehicle: saline with Tween-80) 100 % of control.

For the molecule `O=C1CSc2ccccc2N1`, the T/C (dose: 50.0 mg/kg/injection, schedule: Q01DX001 (ip), vehicle: Klucel (hydroxypropylcellulose) (HPC)) is 109 % of control; the T/C (dose: 100.0 mg/kg/injection, schedule: Q01DX001 (ip), vehicle: Klucel (hydroxypropylcellulose) (HPC)) is 100 % of control; the T/C (dose: 200.0 mg/kg/injection, schedule: Q01DX001 (ip), vehicle: Klucel (hydroxypropylcellulose) (HPC)) was 116 % of control.

Consider `CCOC(=O)C(C#N)C(C)CC` (stereo unspecified), for which the T/C was 90 % of control (dose: 25.0 mg/kg/injection, schedule: Q01DX009 (ip), vehicle: Klucel (hydroxypropylcellulose) (HPC)); 104 % of control (dose: 50.0 mg/kg/injection, schedule: Q01DX009 (ip), vehicle: Klucel (hydroxypropylcellulose) (HPC)); 100 % of control (dose: 100.0 mg/kg/injection, schedule: Q01DX009 (ip), vehicle: Klucel (hydroxypropylcellulose) (HPC)); 87 % of control under setting [12]; 95 % of control (dose: 200.0 mg/kg/injection, schedule: Q01DX009 (ip), vehicle: Klucel (hydroxypropylcellulose) (HPC)); 104 % of control (dose: 200.0 mg/kg/injection, schedule: Q04DX003 (ip), vehicle: Klucel (hydroxypropylcellulose) (HPC)). Also, the T/C (dose: 400.0 mg/kg/injection, schedule: Q01DX009 (ip), vehicle: Klucel (hydroxypropylcellulose) (HPC)) is 90 % of control and the T/C (dose: 400.0 mg/kg/injection, schedule: Q04DX003 (ip), vehicle: Klucel (hydroxypropylcellulose) (HPC)) was 95 % of control.

Take `CCOC(=O)CCC1(C(=O)OCC)Oc2ccc(Cl)cc2C1=O` (stereo unspecified): the T/C is 106 % of control under setting [2], 93 % of control under setting [3] and 108 % of control under setting [11].

As for `O=C(O)/C=C/c1c[nH]c(=O)[nH]c1=O`, the T/C runs as follows: (dose: 25.0 mg/kg/injection, schedule: Q04DX003 (ip), vehicle: Klucel (hydroxypropylcellulose) (HPC)) 101 % of control; (dose: 50.0 mg/kg/injection, schedule: Q04DX003 (ip), vehicle: Klucel (hydroxypropylcellulose) (HPC)) 101 % of control; under setting [12], 115 % of control.

As for `CCCCCC[n+]1cccc(C(N)=O)c1`, the T/C by setting is: under setting [5], 104 % of control; under setting [7], 100 % of control; under setting [8], 95 % of control.

These data come from PubChem BioAssay AID328 (DTP/NCI, 2004).
